This note sets out measurements from patent publication US20220257596A1, “METHODS FOR TREATING MEIBOMIAN GLAND DYSFUNCTION WITH LIVER X RECEPTOR AGONISTS” (Novartis AG, priority 2019, published 2022).

For data set [1], the system named is SZ95 (immortalized human sebaceous gland cells) cells. Put plainly: Sentinel lipid assay (desaturation index in SZ95 sebocytes). Format: cell-based. The method, then: SZ95 (immortalized human sebaceous gland cells) cells were seeded in Greiner bio-one 96-well polypropylene plates that were pre-treated with 50 μg/ml Human Plasma Fibronectin (Thermo Fisher Scientific) at a density of 10^4 cells/135 μl. Cells were incubated in a humidified incubator with 5% CO2 at 37° C. overnight. Test compounds were diluted at a ratio of 1:3 and added to cells at final concentrations starting from 10 μM. Compound H was used as a positive control reference compound in each plate. Cells in the assay plate were incubated in a humidified incubator with 5% CO2 at 37° C. for 72h.
Culture medium was removed from the cells and cells in culture plates were washed with ice cold phosphate buffered saline three times. Plates were heat sealed and stored in a −80° C. freezer prior to Sentinel lipid assay.
Sentinel lipid assay: The sentinel lipid assay was used quantify the change in the global desaturation index in SZ95 sebocytes upon administration of LXR agonist compounds. The assay measures a smaller subset of lipid analytes in […] (termed “sentinel lipids”) which would model the global changes the population of both saturated and desaturated lipids in the cells. In order to define this smaller subset of lipids, a complete lipid profile was recorded on dose response curves (eight levels from 4 nM to 10 uM) of Compounds A-N. An elastic net regression model was applied separately to both the saturated and desaturated lipids to determine the minimum combination of coefficients and analytes which could be used to adequately model the total population of lipids. The elastic net model was able to reduce the behavior of 425 lipids to 11 lipids and the correlation between the desaturation indices observed using the complete set of lipids with from the 11 sentinel lipids was 0.96.
A medium throughput assay was created using this reduced set of sentinel lipids. A single batch is defined as triplicate examples of three unique plates (i.e., a single batch of cells is used to create nine plates for LC-MSMS analysis). Lipids were extracted from the cells using a 1:1 mixture of methylene chloride/methanol containing 10 nM of deuterated standards of triglycerides, which are used as internal standards for quantitating the lipid abundance. The lipids were separated prior to mass spectrometric analysis using a five minute HPLC gradient. The abundance of the sentinel lipids and the internal standards are measured using multiple reaction monitor mode (MRM) on a triple quadrupole mass spectrometer. The data was transformed from total ion current to nmoles/10^6 cells, which are multiplied by the coefficients from the elastic net model to determine the effective desaturated and saturated content, and therein the desaturation index of the dosed cells. In order to compare compounds from multiple batches with one another, the measure raw desaturation index was normalized by dividing it by the desaturation index of the DMSO dosed cells, and all data was assessed as the fraction by which the compound increases the desaturation index above 1. The Amax value refers to the percent […] of the tested compound compared to the reference compound.

In data set [2] the test system is SCD1 protein production in SZ95-SCD1-HiBit cells. Nature of the data set: Measurement of SCD1 expression in SZ95-SCD1-HiBit cells (HiBiT assay). The class given is cell-based. Particulars: Homo sapiens. The method, then:
SZ95-SCD1-HiBit cells were seeded in 384-well cell culture white plates at a density of 3000 cells/30 ul. Water is added to edge wells to avoid evaporation. Cells were incubated in a humidified incubator with 5% CO2 at 37° C. overnight. Tested compounds were diluted at a ratio of 1:3 using Agilent BRAVO Automated Liquid Handling Platform and added to cells at final concentrations starting from 18 μM. Compound H was used as a reference compound in each plate. Cells in the assay plate were incubated in a humidified incubator with 5% CO2 at 37° C. for 48h.
The assay plates were removed from the incubator and allowed to equilibrate to room temperature. Nano-Glo® HiBiT Detection Reagent (Promega; a mixture of Nano-Glo HiBiT Detection Buffer, Nano-Glo HiBiT Detection Substrate, and LgBiT protein) was added into assay plates, at a volume equal to cell culture medium in each well. Plates were placed on an orbital shaker at a speed of 300-600 rpm for 10 min at room temperature, and read on an EnVision Plate Reader using luminescence detection with a 1 second read time.
The assay measures the increase in SCD1 protein production in vitro. Amax refers to the percent […] of the tested compound compared to the reference compound.

The nature of data set [3]: Eyelid pharmacokinetics: compound concentration in rabbit meibomian gland. The class given is in vivo. The method, then:
A formulation of 1% Compound G as a suspension in a suitable vehicle was administered to rabbits as follows. Animals were sedated and the eyelashes and hair on both eyes on both lids trimmed as short as possible. Thirty microliters of the 1% Compound G was drawn up into a pipette and carefully pipetted around the entire eyelid of the animal a few millimeters back from the edge of the lid so as to prevent the material from leaking onto the eye itself. Following application, a cotton swab or eye spear was used to gently try and massage the material into the skin. At the appropriate time points, the animals were euthanized and meibomian glands removed and the concentration of the compound in meibomian glands was measured. The experiment was conducted in triplicate and the results below illustrate mean concentration in nM.

pEC50: −log10 of the molar value.

What is called pEC50 is −log10 of the EC50, conventionally taken in molar units. Take `CCOC(=O)Cn1nc(C(F)(F)F)cc1-c1ccc(-c2cccc(S(C)(=O)=O)c2)cc1` [Compound G, ethyl 2-(5-(3′-(methylsulfonyl)-[1,1′-biphenyl]-4-yl)-3-(trifluoromethyl)-1H-pyrazol-1-yl)acetate]: the pEC50 in data set [1] (SZ95 cells, 72h incubation, top concentration 10 μM, desaturation index, read-out: SLA EC50) was 6.61; in data set [2] (SZ95-SCD1-HiBit cells, 48h incubation, top concentration 18 μM), 6.96. In addition, the Emax was determined as 98.8% in data set [1] (percent compared to the reference compound (Compound H), 72h, read-out: SLA Amax) and 70.7% in data set [2] (percent compared to the reference compound (Compound H), 48h, read-out: HiBit Amax). Besides, the “Uptake into the meibomian gland” value in data set [3] (1% suspension on eyelid, in words) is “sustained for at least six hours”. Also, in data set [3] (meibomian gland, topical, 0.5 h, 30 microliters of 1% suspension applied to eyelid, triplicate), the concentration at 0.5 h is 2630 nM. In data set [3] (meibomian gland, topical, 3 h, 30 microliters of 1% suspension applied to eyelid, triplicate), this molecule returned a concentration at 3 h of 3780 nM. In data set [3] (meibomian gland, topical, 6 h, 30 microliters of 1% suspension applied to eyelid, triplicate), this molecule yielded a concentration at 6 h of 1050 nM.
